Test results as given in patent US9445999B2, “Process for preparing carrier particles for dry powders for inhalation” (CHIESI FARMACEUTICI S.p.A., priority 2010, dated 2016).

Assays:
[1] = Water contact angle by sessile drop (compressed powder disc method); extent of surface coating from the Cassie and Baxter equation; format: physicochemical; conditions: 0.5% w/w MgSt carriers
Source text: The extent to which magnesium stearate coats the surface of the lactose particles may be determined by first measuring the water contact angle, and then applying the equation known in the literature as Cassie and Baxter, cited at page 338 of Colombo I et al., Il Farmaco, 1984, 39(10), pp. 328-341, which is incorporated herein by reference in its entirety, and reported below. cos θmixture=fMgSt cos θMgst+flactore cos θlactose where
fMgst and flactore are the surface area fractions of magnesium stearate and of lactose;
θMgSt is the water contact angle of magnesium stearate;
θlactose is the water contact angle of lactose; and
θmixture are the experimental contact angle values. […]
If a fully automated procedure is not available, the base (b) and the height (h) of the drop are measured on the display using a mobile reading scale, then the water contact angles (WCA) are calculated by applying the following formula: WCA=[arctg2h/b]×2×180/[…]
Typically the values are calculated as a mean of three different measurements taken at room temperature. […]
The results are expresses as mean of three determinations. In Table 2, the water contact angle values and the corresponding extent of surface coating calculated from the Cassie and Baxter equation are also reported. […]

[2] = Particle size distribution (PSD) by laser diffraction with a Malvern apparatus; format: physicochemical; conditions: lactose 90-150 microns + 0.5% w/w MgSt, CYCLOMIX at given speed and time; mean of three determinations
Source text: In general terms, the particle size of the particles is quantified by measuring a characteristic equivalent sphere diameter, known as volume diameter, by laser diffraction.
In the present application, the particle size interval is expressed in terms of […]. Otherwise, the particle size distribution is expressed in terms of: i) the volume median diameter (VMD) which corresponds to the diameter of 50 percent by weight or volume respectively, of the particles, e.g. d(v0.5); and ii) the volume diameter (VD) in microns of 10% and 90% of the particles, respectively, e.g. d(v0.1) and d(v0.9).
iv) the particle size distribution (PSD) by laser diffraction with a Malvern apparatus; the water contact angle by the sessile drop method wherein the powder is in the form of a disc obtained by compaction (compressed powder disc method) according to the procedure reported above in the description;
The results are expresses as mean of three determinations. In Table 2, the water contact angle values and the corresponding extent of surface coating calculated from the Cassie and Baxter equation are also reported. Said equation was applied to the experimental values of the penultimate column of Table 2 using the reference values for magnesium state alone and alpha-lactose monohydrate alone. The variability in terms of S.D. of the experimental values is always less than ±10%, typically of ±5%.

In the case of `O.OC[C@H]1O[C@@H](O[C@H]2[C@H](O)[C@@H](O)[C@@H](O)O[C@@H]2CO)[C@H](O)[C@@H](O)[C@H]1O` [α-lactose monohydrate, alpha-lactose monohydrate], the “Water Contact Angle” value ([1]; compressed powder disc, sessile drop) is reported as 8.35 E, the “Extent of Surface Coating” value ([1]; calculated from the Cassie and Baxter equation) is reported as 0% and the “PSD d(v0.1)” value [2] is reported as 96.4. The “PSD d(v0.5)” value [2] was 132.2 and the “PSD d(v0.9)” value [2] was 182.3.
